In ChEMBL document CHEMBL5518181, “Studies of antibacterial activity (in vitro and in vivo) and mode of action for des-acyl tridecaptins (DATs)” (Eur J Med Chem, 2024):
Values after ≈ are worked out from the molar mass of the structure shown.

Tests used:
Escherichia coli [1] = experiment: Antibacterial activity against wild-type Escherichia coli ATCC 25922 assessed as inhibition of bacterial growth incubated for 18 hrs; assay type: functional; settings: read-out: MIC100
Klebsiella pneumoniae [2] = experiment: Antibacterial activity against wild-type Klebsiella pneumoniae ATCC 13883 assessed as inhibition of bacterial growth incubated for 18 hrs; assay type: functional; settings: read-out: MIC100
[3] = Hemolytic activity in human red blood cells at 400 ug/ml incubated for 45 mins by spectrophotometric analysis relative to control; assay type: toxicity, cell-based, Erythrocyte; settings: red blood cells (erythrocytes), at 400 µg/mL, read-out: Activity
[4] = Cytotoxicity against human HepG2 cells incubated for 40 hrs by celltiter-glo luminescent cell viability assay; assay type: toxicity, cell-based
Escherichia coli [5] = experiment: Antibacterial activity against wild-type Escherichia coli ATCC 25922 assessed as inhibition of bacterial growth incubated for 18 hrs in presence of 50% heat inactivated human serum; assay type: functional; settings: read-out: MIC100
Escherichia coli [6] = experiment: Antibacterial activity against Escherichia coli ATCC 25922 harboring hldE knock-out assessed as inhibition of bacterial growth incubated for 18 hrs; assay type: functional; settings: read-out: MIC100
Escherichia coli [7] = experiment: Antibacterial activity against Escherichia coli ATCC 25922 harboring tolC knock-out assessed as inhibition of bacterial growth incubated for 18 hrs; assay type: functional; settings: read-out: MIC100
Klebsiella pneumoniae [8] = experiment: Antibacterial activity against wild-type Klebsiella pneumoniae ATCC 13883 assessed as inhibition of bacterial growth incubated for 18 hrs in presence of 50% heat inactivated human serum; assay type: functional; settings: read-out: MIC100
Acinetobacter baumannii = experiment: Antibacterial activity against wild-type Acinetobacter baumannii ATCC 19606 assessed as inhibition of bacterial growth incubated for 20 hrs; assay type: functional; settings: read-out: MIC100
Pseudomonas aeruginosa = experiment: Antibacterial activity against wild-type Pseudomonas aeruginosa PAO1 assessed as inhibition of bacterial growth incubated for 24 hrs; assay type: functional; settings: read-out: MIC100
Staphylococcus aureus = experiment: Antibacterial activity against […] assessed as inhibition of bacterial growth incubated for 18 hrs; assay type: functional; settings: ATCC 29213, read-out: MIC100
[9] = Hydrophobicity of compound assessed as %MeCN at peak elution by RP-HPLC analysis; assay type: physicochemical

Row | SMILES | MIC (Escherichia coli [1]) [µg/mL] | MIC (Klebsiella pneumoniae [2]) [µg/mL] | hemolysis at 0.75 h, 400 ug/ml [3] [%] | IC50 at 40 h [4] [µg/mL] | MIC (Escherichia coli [5]) [µg/mL] | MIC (Escherichia coli [6]) [µg/mL] | MIC (Escherichia coli [7]) [µg/mL] | MIC (Klebsiella pneumoniae [8]) [µg/mL] | MIC (Acinetobacter baumannii) [µg/mL] | MIC (Pseudomonas aeruginosa) [µg/mL] | MIC (Staphylococcus aureus) [µg/mL] | MeCN percentage at peak elution [9] [%]
1 | CC[C@H](C)[C@@H](NC(=O)[C@@H](NC(=O)[C@H](CCC(=O)O)NC(=O)[C@H](Cc1ccccc1)NC(=O)[C@@H](CCN)NC(=O)[C@H](CCN)NC(=O)[C@H](CO)NC(=O)[C@@H](Cc1c[nH]c2ccccc12)NC(=O)[C@@H](CO)NC(=O)CNC(=O)[C@@H](CCN)NC(=O)[C@H](NC(=O)[C@@H](C)N)C(C)C)C(C)C)C(=O)N[C@@H](C)C(=O)O | 4 (≈ 2.73 µM) | 2 (≈ 1.36 µM) | 2.3 | 98 (≈ 66.9 µM) | 4 | 2 (≈ 1.36 µM) | 4 (≈ 2.73 µM) | 4 | > 64 | 32 (≈ 21.8 µM) | > 64 | 39.6
2 | CC[C@H](C)[C@@H](NC(=O)[C@@H](NC(=O)[C@H](C)NC(=O)[C@H](Cc1ccccc1)NC(=O)[C@@H](CCN)NC(=O)[C@H](CCN)NC(=O)[C@H](CO)NC(=O)[C@@H](Cc1c[nH]c2ccccc12)NC(=O)[C@@H](CO)NC(=O)CNC(=O)[C@@H](CCN)NC(=O)[C@H](NC(=O)[C@H](C)N)C(C)C)C(C)C)C(=O)N[C@@H](C)C(=O)O | 8 (≈ 5.68 µM) | 16 (≈ 11.4 µM) | 0.3 | 67 (≈ 47.6 µM) | 4 | 2 (≈ 1.42 µM) | 8 (≈ 5.68 µM) | 32 | > 64 | 64 (≈ 45.5 µM) | > 64 | 40.1
3 | CC(C)[C@H](NC(=O)[C@H](CCC(=O)O)NC(=O)[C@H](Cc1ccccc1)NC(=O)[C@@H](CCN)NC(=O)[C@H](CCN)NC(=O)[C@H](CO)NC(=O)[C@@H](Cc1c[nH]c2ccccc12)NC(=O)[C@@H](CO)NC(=O)CNC(=O)[C@@H](CCN)NC(=O)[C@H](NC(=O)[C@H](C)N)C(C)C)C(=O)N[C@H](C)C(=O)N[C@@H](C)C(=O)O | 64 (≈ 45 µM) | 32 (≈ 22.5 µM) | 5 | 47 (≈ 33 µM) | 32 | 8 (≈ 5.62 µM) | 32 (≈ 22.5 µM) | 16 | > 64 | 64 (≈ 45 µM) | > 64 | 37.7
4 | CC[C@H](C)[C@@H](NC(=O)[C@@H](NC(=O)[C@H](CCC(=O)O)NC(=O)[C@H](Cc1ccccc1)NC(=O)[C@@H](CCN)NC(=O)[C@H](CCN)NC(=O)[C@H](CO)NC(=O)[C@@H](Cc1c[nH]c2ccccc12)NC(=O)[C@@H](CO)NC(=O)[C@H](CC(=O)O)NC(=O)[C@@H](CCN)NC(=O)[C@H](N)C(C)C)C(C)C)C(=O)N[C@@H](C)C(=O)O | > 64 | > 64 | 0 | 13 (≈ 8.95 µM) | 64 | – | – | > 64 | > 64 | 64 (≈ 44.1 µM) | > 64 | 37.8
5 | CC[C@@H](C)[C@@H](NC(=O)[C@@H](NC(=O)[C@H](CCC(=O)O)NC(=O)[C@H](Cc1ccccc1)NC(=O)[C@@H](CCN)NC(=O)[C@H](CCN)NC(=O)[C@H](CO)NC(=O)[C@@H](Cc1c[nH]c2ccccc12)NC(=O)[C@@H](CO)NC(=O)CNC(=O)[C@@H](CCN)NC(=O)[C@H](N)C(C)C)C(C)C)C(=O)N[C@@H](C)C(=O)O | 64 (≈ 45.9 µM) | 64 (≈ 45.9 µM) | 5.5 | 91 (≈ 65.3 µM) | 8 | 8 (≈ 5.74 µM) | 4 (≈ 2.87 µM) | 8 | 64 (≈ 45.9 µM) | > 64 | > 64 | 39.5
6 | CC[C@H](C)[C@@H](NC(=O)[C@@H](NC(=O)[C@H](CCC(=O)O)NC(=O)[C@H](Cc1ccccc1)NC(=O)[C@@H](C)NC(=O)[C@H](CCN)NC(=O)[C@H](CO)NC(=O)[C@@H](Cc1c[nH]c2ccccc12)NC(=O)[C@@H](CO)NC(=O)CNC(=O)[C@@H](CCN)NC(=O)[C@H](NC(=O)[C@H](C)N)C(C)C)C(C)C)C(=O)N[C@@H](C)C(=O)O | 16 (≈ 11.1 µM) | 16 (≈ 11.1 µM) | 4.5 | 35 (≈ 24.4 µM) | 8 | 8 (≈ 5.57 µM) | 8 (≈ 5.57 µM) | 16 | 64 (≈ 44.5 µM) | > 64 | > 64 | 45.9
7 | CC[C@H](C)[C@@H](NC(=O)[C@@H](NC(=O)[C@H](CCC(=O)O)NC(=O)[C@H](Cc1ccc(-c2ccccc2)cc1)NC(=O)[C@@H](CCN)NC(=O)[C@H](CCN)NC(=O)[C@H](CO)NC(=O)[C@@H](Cc1c[nH]c2ccccc12)NC(=O)[C@@H](CO)NC(=O)CNC(=O)[C@@H](CCN)NC(=O)[C@H](N)C(C)C)C(C)C)C(=O)N[C@@H](C)C(=O)O | 8 (≈ 5.44 µM) | 4 (≈ 2.72 µM) | 24.5 | 23 (≈ 15.6 µM) | – | 2 (≈ 1.36 µM) | < 0.125 | 4 | > 64 | 64 (≈ 43.5 µM) | > 64 | –
8 | CC[C@H](C)[C@@H](NC(=O)[C@@H](NC(=O)[C@H](CCC(=O)O)NC(=O)[C@H](Cc1ccccc1)NC(=O)[C@@H](CCN)NC(=O)[C@H](CCN)NC(=O)[C@H](CO)NC(=O)[C@@H](Cc1c[nH]c2ccccc12)NC(=O)[C@@H](CO)NC(=O)CNC(=O)[C@@H](CCN)NC(=O)[C@H](N)C(C)(C)C)C(C)C)C(=O)N[C@@H](C)C(=O)O | 32 (≈ 22.7 µM) | 16 (≈ 11.4 µM) | 13 | 33 (≈ 23.4 µM) | – | – | – | – | – | – | – | –
9 | CC[C@H](C)[C@@H](NC(=O)[C@H](CC1CCCCC1)NC(=O)[C@H](CCC(=O)O)NC(=O)[C@H](Cc1ccccc1)NC(=O)[C@@H](CCN)NC(=O)[C@H](CCN)NC(=O)[C@H](CO)NC(=O)[C@@H](Cc1c[nH]c2ccccc12)NC(=O)[C@@H](CO)NC(=O)CNC(=O)[C@@H](CCN)NC(=O)[C@H](N)C(C)C)C(=O)N[C@@H](C)C(=O)O | 8 (≈ 5.52 µM) | 8 (≈ 5.52 µM) | 59.1 | 46 (≈ 31.8 µM) | 16 | 2 (≈ 1.38 µM) | < 0.125 | 4 | 64 (≈ 44.2 µM) | > 64 | > 64 | 43.9
10 | CC[C@H](C)[C@@H](NC(=O)[C@@H](NC(=O)[C@H](CCC(=O)O)NC(=O)[C@H](Cc1ccccc1)NC(=O)[C@@H](CCN)NC(=O)[C@H](CCN)NC(=O)[C@H](CO)NC(=O)[C@@H](Cc1c[nH]c2ccccc12)NC(=O)[C@@H](CO)NC(=O)[C@H](C)NC(=O)[C@@H](CCN)NC(=O)[C@H](NC(=O)[C@H](C)N)C(C)C)C(C)C)C(=O)N[C@@H](C)C(=O)O | 16 (≈ 10.8 µM) | 32 (≈ 21.6 µM) | 31.9 | 74 (≈ 50 µM) | – | – | – | – | – | – | – | –
11 | CC[C@H](C)[C@@H](NC(=O)[C@@H](NC(=O)[C@H](CCC(=O)O)NC(=O)[C@H](Cc1ccccc1)NC(=O)[C@@H](CCN)NC(=O)[C@H](CCN)NC(=O)[C@H](CO)NC(=O)[C@@H](Cc1c[nH]c2ccccc12)NC(=O)[C@@H](CO)NC(=O)CNC(=O)[C@@H](CCN)NC(=O)[C@H](NC(=O)[C@@H](N)CO)C(C)C)C(C)C)C(=O)N[C@@H](C)C(=O)O | 32 (≈ 21.6 µM) | 16 (≈ 10.8 µM) | 4.2 | > 170 | – | – | – | – | – | – | – | –
12 | CC[C@H](C)[C@@H](NC(=O)[C@@H](NC(=O)[C@H](CCC(=O)O)NC(=O)[C@H](Cc1ccccc1)NC(=O)[C@@H](C)NC(=O)[C@H](CCN)NC(=O)[C@H](CO)NC(=O)[C@@H](Cc1c[nH]c2ccccc12)NC(=O)[C@@H](CO)NC(=O)CNC(=O)[C@@H](CCN)NC(=O)[C@H](N)C(C)C)C(C)C)C(=O)N[C@@H](C)C(=O)O | > 64 | 64 (≈ 46.9 µM) | 0 | > 170 | – | – | – | – | – | – | – | –
